Test results: ChEMBL document CHEMBL5104211, “Design and synthesis of bile acid derivatives and their activity against colon cancer” (RSC Med Chem, 2022)
pIC50: −log10 of the molar value. Activity calls are given as the source filed them. The rule behind the calls is not given here.

Experiments:
[1] = system: HCT-116; experiment: Anticancer activity against human HCT-116 cells assessed as decrease in number of colonies at 25 micromol/L and measured after 48 hrs by crystal violet dye based colony formation assay; type: functional, cell-based; details: dose 25.0 µmol/L
[2] = system: HCT-116; experiment: Induction of apoptosis in human HCT-116 cells assessed as contraction of cell volume at 30 micromol/L incubated for 48 hrs by Giemsa staining based fluorescence microscopy; type: functional; details: dose 30.0 µmol/L
[3] = system: HCT-116; experiment: Induction of apoptosis in human HCT-116 cells assessed as apoptotic body formation at 30 micromol/L incubated for 48 hrs by Giemsa staining based fluorescence microscopy; type: functional, cell-based; details: dose 30.0 µmol/L
[4] = system: HCT-116; experiment: Induction of apoptosis in human HCT-116 cells assessed as retraction of the cytoplasm at 30 micromol/L incubated for 48 hrs by Giemsa staining based fluorescence microscopy; type: functional, cell-based; details: dose 30.0 µmol/L
[5] = system: MGC-803; experiment: Anticancer activity against human MGC-803 cells assessed as inhibition of cell proliferation by MTT assay; type: functional, cell-based
[6] = system: Huh-7; experiment: Anticancer activity against human Huh-7 cells assessed as inhibition of cell proliferation by MTT assay; type: functional, cell-based
[7] = system: HCT-116; experiment: Anticancer activity against human HCT-116 cells assessed as inhibition of cell proliferation at 25 micromol/L incubated for 24 hrs by MTT assay; type: functional; details: HCT-116, 24 h, dose 25 µmol/L
[8] = system: HCT-116; experiment: Anticancer activity against human HCT-116 cells assessed as inhibition of cell proliferation at 20 to 40 micromol/L incubated for 24 to 72 hrs by MTT assay; type: functional, cell-based; details: dose 20-40 µmol/L, time 24-72 hrs, TDE = time-dependent effect
[9] = system: SK-HEP1; experiment: Anticancer activity against human SK-HEP1 cells assessed as inhibition of cell proliferation by MTT assay; type: functional, cell-based
[10] = system: LoVo; experiment: Anticancer activity against human LoVo cells assessed as inhibition of cell proliferation by MTT assay; type: functional, cell-based
[11] = system: HCT-116; experiment: Inhibition of cell invasion in human HCT-116 cells at 20 micromol/L and measured after 24 hrs by crystal violet staining based transwell assay; type: functional; details: HCT-116, 24 h, dose 20 µmol/L
[12] = system: HCT-116; experiment: Anticancer activity against human HCT-116 cells assessed as inhibition of cell proliferation by MTT assay; type: functional, cell-based
[13] = system: HCT-116; experiment: Induction of mitochondrial membrane potential loss in human HCT-116 cells and measured after 48 hrs by TRME staining based flow cytometric analysis (reference value: 97.52%); type: functional
[14] = system: HCT-116; experiment: Induction of apoptosis in human HCT-116 cells assessed as early apoptotic cells at 30 micromol/L incubated for 48 hrs by annexin V-FITC and propidium iodide staining based flow cytometry analysis (reference value: 2.69%); type: functional; details: dose 30 µmol/L, at 30 µM
[15] = system: HCT-116; experiment: Anticancer activity against human HCT-116 cells assessed as inhibition of cell proliferation at 30 micromol/L incubated for 24 hrs by MTT assay; type: functional; details: HCT-116, 24 h, dose 30 µmol/L
[16] = system: HCT-116; experiment: Anticancer activity in human HCT-116 cells assessed as downregulation of phosphorylated STAT3 level at 30 micromol/L incubated for 48 hrs by Western blot analysis; type: functional, cell-based; details: dose 30.0 µmol/L
[17] = system: HCT-116; experiment: […] activity in human HCT-116 cells assessed as downregulation of Bcl-2 level at 30 micromol/L incubated for 48 hrs by Western blot analysis; type: functional, cell-based; details: dose 30.0 µmol/L
[18] = system: HCT-116; experiment: Induction of apoptosis in human HCT-116 cells assessed as viable cells at 30 micromol/L incubated for 48 hrs by annexin V-FITC and propidium iodide staining based flow cytometry analysis (reference value: 89.29%); type: functional; details: HCT-116, 48 h, dose 30 µmol/L, read-out: Activity
[19] = system: SW480; experiment: Anticancer activity against human SW480 cells assessed as inhibition of cell proliferation by MTT assay; type: functional, cell-based
[20] = system: HT-29; experiment: Anticancer activity against human HT-29 cells assessed as inhibition of cell proliferation by MTT assay; type: functional, cell-based
[21] = Cytotoxicity against human WI-38 cells assessed as inhibition of cell proliferation by MTT assay; type: toxicity, cell-based
[22] = system: HCT-116; experiment: Induction of cell cycle arrest in human HCT-116 cells assessed as accumulation G2/M phase at 25 micromol/L and measured after 48 hrs by propidium iodide staining based flow cytometry analysis (Rvb= 11%); type: functional; details: dose 25 µmol/L, at 25 µM
[23] = system: HCT-116; experiment: Induction of apoptosis in human HCT-116 cells assessed as necrotic cells at 30 micromol/L incubated for 48 hrs by annexin V-FITC and propidium iodide staining based flow cytometry analysis (reference value: 0.88%); type: functional; details: dose 30 µmol/L, at 30 µM
[24] = system: HCT-116; experiment: Induction of apoptosis in human HCT-116 cells assessed as unclear cell rupture edges at 30 micromol/L incubated for 48 hrs by Giemsa staining based fluorescence microscopy; type: functional; details: dose 30.0 µmol/L
[25] = system: HCT-116; experiment: Induction of ROS generation in human HCT-116 cells assessed as increase in intracellular ROS level incubated for 48 hrs by DCFH-DA staining based flow cytometric analysis (Rvb=73.65%); type: functional
[26] = system: RKO; experiment: Anticancer activity against human RKO cells assessed as inhibition of cell proliferation by MTT assay; type: functional, cell-based
[27] = system: HCT-116; experiment: Anticancer activity against human HCT-116 cells assessed as inhibition of cell proliferation at 5 to 50 micromol/L incubated for 24 hrs by MTT assay; type: functional, cell-based; details: dose 5-50 µmol/L, DDE = dose-dependent effect
[28] = system: HCT-116; experiment: Induction of apoptosis in human HCT-116 cells assessed as late apoptotic cells at 30 micromol/L incubated for 48 hrs by annexin V-FITC and propidium iodide staining based flow cytometry analysis (reference value: 7.13%); type: functional; details: dose 30 µmol/L, at 30 µM
[29] = system: HCT-116; experiment: Inhibition of cell migration in human HCT-116 cells at 20 micromol/L and measured after 24 hrs by crystal violet staining based transwell assay; type: functional; details: dose 20.0 µmol/L
[30] = system: A549; experiment: Anticancer activity against human A549 cells assessed as inhibition of cell proliferation by MTT assay; type: functional, cell-based
[31] = system: HCT-116; experiment: Anticancer activity against human HCT-116 cells assessed as decrease in size of colonies at 25 micromol/L and measured after 48 hrs by crystal violet dye based colony formation assay; type: functional, cell-based; details: dose 25.0 µmol/L
[32] = system: HCT-116; experiment: […] activity in human HCT-116 cells assessed as upregulation of cleaved caspase-3 level at 30 micromol/L incubated for 48 hrs by Western blot analysis; type: functional, cell-based; details: dose 30.0 µmol/L
[33] = system: HCT-116; experiment: Induction of apoptosis in human HCT-116 cells assessed as retraction of the nucleus at 30 micromol/L incubated for 48 hrs by Giemsa staining based fluorescence microscopy; type: functional, cell-based; details: dose 30.0 µmol/L
[34] = system: RAW264.7; experiment: Anti-inflammatory activity against mouse RAW264.7 cells assessed as downregulation of LPS-induced TNF-alpha level at 25 micromol/L incubated for 24 hrs in presence of LPS by ELISA; type: functional; details: dose 25 µmol/L, at 25 µM
[35] = system: RAW264.7; experiment: Anti-inflammatory activity against mouse RAW264.7 cells assessed as inhibition of LPS-induced NO production incubated for 24 hrs in presence of LPS by Griess reagent-based assay; type: functional, cell-based; details: RAW264.7, 24 h
[36] = system: RAW264.7; experiment: Anti-inflammatory activity against mouse RAW264.7 cells assessed as inhibition of LPS-induced NO production at 10 micromol/L incubated for 24 hrs in presence of LPS by Griess reagent-based assay; type: functional; details: RAW264.7, 24 h, dose 10 µmol/L
[37] = system: RAW264.7; experiment: Anti-inflammatory activity against mouse RAW264.7 cells assessed as inhibition of LPS-induced NO production at 25 micromol/L incubated for 24 hrs in presence of LPS by Griess reagent-based assay; type: functional; details: RAW264.7, 24 h, dose 25 µmol/L

## COC(=O)[C@H](CCSC)NC(=O)CC[C@@H](C)[C@H]1CC[C@H]2[C@@H]3[C@H](O)C[C@@H]4C[C@H](O)CC[C@]4(C)[C@H]3CC[C@]12C
[1]
  Activity: Active
[2]
  Activity: Active
[3]
  Activity: Active
[4]
  Activity: Active
[5]
  pIC50: 4.50
[6]
  pIC50: 4.17
[7]
  inhibition at 25 µM: 30%
[8]
  inhibition: Tde
[9]
  pIC50: 4.41
[10]
  pIC50: 4.64
[11]
  inhibition at 20 µM: 50%
[12]
  pIC50: 4.56
[13]
  Activity: 79.54%
[14]
  Activity: 3.86%
[15]
  inhibition at 30 µM: 70%
[16]
  Activity: Active
[17]
  Activity: Active
[18]
  viability at 30 µM: 43.1%
[19]
  pIC50: 4.63
[20]
  pIC50: 4.56
[21]
  pIC50: < 3.30
[22]
  Activity: 72.91%
[23]
  Activity: 0.71%
[24]
  Activity: Active
[25]
  Activity: 86.51%
[26]
  pIC50: 4.56
[27]
  inhibition: Dde
[28]
  Activity: 52.35%
[29]
  inhibition: Active
[30]
  pIC50: 4.10
[31]
  Activity: Active
[32]
  Activity: Active
[33]
  Activity: Active

## C[C@H](CCC(=O)OCc1cc(O)cc(O)c1)[C@H]1CC[C@H]2[C@@H]3CC[C@@H]4C[C@H](O)CC[C@]4(C)[C@H]3CC[C@]12C
[34]
  Activity: 50%
[5]
  pIC50: 4.08
[6]
  pIC50: < 3.70
[9]
  pIC50: < 3.70
[10]
  pIC50: 4.22
[35]
  pIC50: 4.92
[12]
  pIC50: 4.30
[36]
  inhibition at 10 µM: 49%
[19]
  pIC50: 3.87
[20]
  pIC50: 4.34
[21]
  pIC50: < 3.70
[26]
  pIC50: 4.37
[30]
  pIC50: 3.91
[37]
  inhibition at 25 µM: 82.1%
